Source: the NIST ThermoML archive (doi:10.1016/j.jct.2004.12.008)

Test: xn = mol fraction of the nth substance listed
Conditions: 101 kPa, Liquid

C=Cc1ccccc1 [styrene] + O=[N+]([O-])c1ccccc1
Conditions | mass density [kg/m3]
293.15 K, x1 = 0.0536 | 1185.47
293.15 K, x1 = 0.1324 | 1160.15
293.15 K, x1 = 0.1909 | 1141.63
293.15 K, x1 = 0.2564 | 1121.18
293.15 K, x1 = 0.3257 | 1099.86
293.15 K, x1 = 0.3986 | 1077.76
293.15 K, x1 = 0.4576 | 1060.12
293.15 K, x1 = 0.5243 | 1040.42
293.15 K, x1 = 0.5888 | 1021.61
293.15 K, x1 = 0.6424 | 1006.13
293.15 K, x1 = 0.7156 | 985.23
293.15 K, x1 = 0.7756 | 968.27
293.15 K, x1 = 0.8324 | 952.34
293.15 K, x1 = 0.8755 | 940.34
293.15 K, x1 = 0.9424 | 921.83
293.15 K, x1 = 1 | 906
303.15 K, x1 = 0.0621 | 1173.19
303.15 K, x1 = 0.1248 | 1152.93
303.15 K, x1 = 0.1822 | 1134.64
303.15 K, x1 = 0.2429 | 1115.56
303.15 K, x1 = 0.3139 | 1093.59
303.15 K, x1 = 0.3571 | 1080.39
303.15 K, x1 = 0.4249 | 1059.93
303.15 K, x1 = 0.4819 | 1042.96
303.15 K, x1 = 0.5487 | 1023.33
303.15 K, x1 = 0.5901 | 1011.29
303.15 K, x1 = 0.6528 | 993.23
303.15 K, x1 = 0.7289 | 971.58
303.15 K, x1 = 0.7913 | 954.03
303.15 K, x1 = 0.8592 | 935.12
303.15 K, x1 = 0.9368 | 913.72
303.15 K, x1 = 1 | 896.44
313.15 K, x1 = 0.0492 | 1167.15
313.15 K, x1 = 0.1189 | 1144.52
313.15 K, x1 = 0.1898 | 1121.9
313.15 K, x1 = 0.2563 | 1101.03
313.15 K, x1 = 0.3398 | 1075.31
313.15 K, x1 = 0.4018 | 1056.54
313.15 K, x1 = 0.4621 | 1038.54
313.15 K, x1 = 0.5243 | 1020.21
313.15 K, x1 = 0.5811 | 1003.69
313.15 K, x1 = 0.6421 | 986.16
313.15 K, x1 = 0.7132 | 965.98
313.15 K, x1 = 0.7723 | 949.39
313.15 K, x1 = 0.8421 | 930.01
313.15 K, x1 = 0.8942 | 915.68
313.15 K, x1 = 0.9524 | 899.79
313.15 K, x1 = 1 | 886.88
323.15 K, x1 = 0.0598 | 1152.7
323.15 K, x1 = 0.1329 | 1129.06
323.15 K, x1 = 0.1942 | 1109.58
323.15 K, x1 = 0.2458 | 1093.41
323.15 K, x1 = 0.3239 | 1069.35
323.15 K, x1 = 0.3891 | 1049.61
323.15 K, x1 = 0.4314 | 1036.97
323.15 K, x1 = 0.5028 | 1015.92
323.15 K, x1 = 0.5622 | 998.67
323.15 K, x1 = 0.6321 | 978.64
323.15 K, x1 = 0.6873 | 963.03
323.15 K, x1 = 0.7419 | 947.74
323.15 K, x1 = 0.8054 | 930.15
323.15 K, x1 = 0.8823 | 909.1
323.15 K, x1 = 0.9339 | 895.1
323.15 K, x1 = 1 | 877.32
333.15 K, x1 = 0.0647 | 1139.39
333.15 K, x1 = 0.1278 | 1119.07
333.15 K, x1 = 0.1825 | 1101.73
333.15 K, x1 = 0.2542 | 1079.38
333.15 K, x1 = 0.3183 | 1059.76
333.15 K, x1 = 0.3798 | 1041.24
333.15 K, x1 = 0.4248 | 1027.86
333.15 K, x1 = 0.4892 | 1008.97
333.15 K, x1 = 0.5329 | 996.32
333.15 K, x1 = 0.5892 | 980.2
333.15 K, x1 = 0.6379 | 966.41
333.15 K, x1 = 0.7132 | 945.37
333.15 K, x1 = 0.7987 | 921.85
333.15 K, x1 = 0.868 | 903.04
333.15 K, x1 = 0.9468 | 881.9
333.15 K, x1 = 1 | 867.76
343.15 K, x1 = 0.0687 | 1125.66
343.15 K, x1 = 0.1139 | 1111.2
343.15 K, x1 = 0.1842 | 1089.06
343.15 K, x1 = 0.2389 | 1072.13
343.15 K, x1 = 0.3234 | 1046.47
343.15 K, x1 = 0.3894 | 1026.81
343.15 K, x1 = 0.4346 | 1013.54
343.15 K, x1 = 0.4903 | 997.4
343.15 K, x1 = 0.5538 | 979.25
343.15 K, x1 = 0.614 | 962.29
343.15 K, x1 = 0.6622 | 948.88
343.15 K, x1 = 0.7319 | 929.71
343.15 K, x1 = 0.7922 | 913.35
343.15 K, x1 = 0.8531 | 896.99
343.15 K, x1 = 0.9234 | 878.32
343.15 K, x1 = 1 | 858.2
353.15 K, x1 = 0.055 | 1116.88
353.15 K, x1 = 0.1376 | 1090.79
353.15 K, x1 = 0.1726 | 1079.91
353.15 K, x1 = 0.2389 | 1059.6
353.15 K, x1 = 0.302 | 1040.61
353.15 K, x1 = 0.3791 | 1017.85
353.15 K, x1 = 0.4349 | 1001.66
353.15 K, x1 = 0.5139 | 979.13
353.15 K, x1 = 0.5628 | 965.4
353.15 K, x1 = 0.6249 | 948.19
353.15 K, x1 = 0.6733 | 934.94
353.15 K, x1 = 0.7234 | 921.37
353.15 K, x1 = 0.7981 | 901.38
353.15 K, x1 = 0.8621 | 884.47
353.15 K, x1 = 0.9412 | 863.83
353.15 K, x1 = 1 | 848.64
